Measured values: US20230082430A1 (C4 Therapeutics, Inc., priority 2019, published 2023)
pIC50: −log10 of the molar value. Counter-ions that a name gives are not always drawn.

Each molecule was assayed on NCIH929.1 cells (assay: Cell viability assay for Table 2 (CellTiter-Glo 2.0, ATP quantification, 96 hr)). Settings: 96 h, NCIH929.1 cell viability, 96 hr, top concentration 1 μM, 14 points half log titration; read-out: IC50.
Assay type: cell-based
From the text: Cell Viability Assay for Table 2
CellTiter-Glo® 2.0 Assay was purchased from Promega (Madison, Wis., USA). NCIH929.1 cell line was purchased from ATCC (Manassas, Va., USA). Cell culture flasks and 384-well microplates were acquired from VWR (Radnor, Pa., USA).
With `CC1(n2cc(Cc3ccc4c5c(cccc35)C(=O)N4C3CCC(=O)NC3=O)cn2)CCN(S(=O)(=O)C2(C)CCC2)CC1` (stereo not shown) [Compound 233, 3-[6-[[1-[4-methyl-1-(1-methylcyclobutyl)sulfonyl-4-piperidyl]pyrazol-4-yl]methyl]-2-oxo-benzo[cd]indol-1-yl]piperidine-2,6-dione] the pIC50 was > 9.00. `CC1(n2cc(Cc3ccc4c5c(cccc35)C(=O)N4C3CCC(=O)NC3=O)cn2)CCN(C(=O)C2(C(F)(F)F)CC2)CC1` (stereo not shown) [Compound 77, 3-(6-((1-(4-methyl-1-(1-(trifluoromethyl)cyclopropane-1-carbonyl)piperidin-4-yl)-1H-pyrazol-4-yl)methyl)-2-oxobenzo[cd]indol-1(2H)-yl)piperidine-2,6-dione] was tested, and the pIC50 was > 9.00. In the case of `CC1(C(=O)N2CCC(n3cc(Cc4ccc5c6c(cccc46)C(=O)N5C4CCC(=O)NC4=O)c4cccnc43)CC2)CCC1` (stereo not shown) [Compound 253, 3-[6-[[1-[1-(1-methylcyclobutanecarbonyl)-4-piperidyl]pyrrolo[2,3-b]pyridin-3-yl]methyl]-2-oxo-benzo[cd]indol-1-yl]piperidine-2,6-dione], the pIC50 was > 9.00. For `O=C1CCC(N2C(=O)c3cccc4c(Cc5ccc(CN6CCOCC6)cc5)ccc2c34)C(=O)N1` (single isomer, unassigned) [Compound 220, 3-(6-(4-(morpholinomethyl)benzyl)-2-oxobenzo[cd]indol-1(2H)-yl)piperidine-2,6-dione], the pIC50 was > 9.00. With `COC1(CN2CCC(C)(n3cc(Cc4ccc5c6c(cccc46)C(=O)N5C4CCC(=O)NC4=O)cn3)CC2)CCC1` (stereo not shown) [Compound 103, 3-(6-((1-(1-((1-methoxycyclobutyl)methyl)-4-methylpiperidin-4-yl)-1H-pyrazol-4-yl)methyl)-2-oxobenzo[cd]indol-1(2H)-yl)piperidine-2,6-dione] the pIC50 was > 9.00. `Cc1cccc(C)c1C(=O)N1CCC(n2cc(Cc3ccc4c5c(cccc35)C(=O)N4C3CCC(=O)NC3=O)cn2)CC1` (stereo not shown) [Compound 45, 3-(6-((1-(1-(2,6-dimethylbenzoyl)piperidin-4-yl)-1H-pyrazol-4-yl)methyl)-2-oxobenzo[cd]indol-1(2H)-yl)piperidine-2,6-dione] was tested, and the pIC50 was > 9.00. In the case of `CC(C)(C#N)CN1CCC(n2cc(Cc3ccc4c5c(cccc35)C(=O)N4C3CCC(=O)NC3=O)cn2)CC1` (stereo not shown) [Compound 61, 3-(4-(4-((1-(2,6-dioxopiperidin-3-yl)-2-oxo-1,2-dihydrobenzo[cd]indol-6-yl)methyl)-1H-pyrazol-1-yl)piperidin-1-yl)-2,2-dimethylpropanenitrile], the pIC50 was > 9.00. `N#CC1(C(=O)N2CCC(n3cc(Cc4ccc5c6c(cccc46)C(=O)N5C4CCC(=O)NC4=O)cn3)CC2)CCC1` (stereo not shown) [Compound 39, 1-(4-(4-((1-(2,6-dioxopiperidin-3-yl)-2-oxo-1,2-dihydrobenzo[cd]indol-6-yl)methyl)-1H-pyrazol-1-yl)piperidine-1-carbonyl)cyclobutane-1-carbonitrile] was tested, and the pIC50 was > 9.00. In the case of `O=C1CCC(N2C(=O)c3cccc4c(Cc5ccc(CN6CCN(S(=O)(=O)CC(F)(F)F)CC6)cc5)ccc2c34)C(=O)N1` (single isomer, unassigned) [Compound 159, 3-(2-Oxo-6-{4-[4-(2,2,2-trifluoro-ethanesulfonyl)-piperazin-1-ylmethyl]-benzyl}-2H-benzo[cd]indol-1-yl)-piperidine-2,6-dione], the pIC50 was > 9.00. In the case of `CN(c1cnn(C2CCN(C(=O)OC(C)(C)C)CC2)c1)c1ccc2c3c(cccc13)C(=O)N2C1CCC(=O)NC1=O` (stereo not shown) [Compound 252, tert-butyl 4-[4-[[1-(2,6-dioxo-3-piperidyl)-2-oxo-benzo[cd]indol-6-yl]-methyl-amino]pyrazol-1-yl]piperidine-1-carboxylate], the pIC50 was > 7.00. `O=C1CCC(N2C(=O)c3cccc4c(Cc5ccccc5)ccc2c34)C(=O)N1` (stereo not shown) [Compound 277, 3-(6-benzyl-2-oxo-benzo[cd]indol-1-yl)piperidine-2,6-dione] was tested, and the pIC50 was > 9.00. `O=C1CCC(N2C(=O)c3cccc4c(Cc5cnn(C6CCN(C(=O)C78C9C%10C%11C9C7C%11C%108)CC6)c5)ccc2c34)C(=O)N1` (stereo not shown) [Compound 54, 3-(6-((1-(1-(cubane-1-carbonyl)piperidin-4-yl)-1H-pyrazol-4-yl)methyl)-2-oxobenzo[cd]indol-1(2H)-yl)piperidine-2,6-dione] was tested, and the pIC50 was > 9.00. With `O=C1CCC(N2C(=O)c3cccc4c(Cc5ccc(CN6CC7CCC(C6)O7)cc5)ccc2c34)C(=O)N1` (stereo not shown) [Compound 115, 3-(6-(4-((8-oxa-3-azabicyclo[3.2.1]octan-3-yl)methyl)benzyl)-2-oxobenzo[cd]indol-1(2H)-yl)piperidine-2,6-dione] the pIC50 was > 9.00. In the case of `O=C1CCC(N2C(=O)c3cccc4c(Cc5ccc(CN6CCN(CC7CC7)CC6)cc5)ccc2c34)C(=O)N1` (stereo not shown) [Compound 113, 3-(6-(4-((4-(cyclopropylmethyl)piperazin-1-yl)methyl)benzyl)-2-oxobenzo[cd]indol-1(2H)-yl)piperidine-2,6-dione], the pIC50 was > 9.00. `O=C1CCC(N2C(=O)c3cccc4c(Cc5cnn(C6CCN(C(=O)c7ccncc7)CC6)c5)ccc2c34)C(=O)N1` (stereo not shown) [Compound 42, 3-(6-((1-(1-isonicotinoylpiperidin-4-yl)-1H-pyrazol-4-yl)methyl)-2-oxobenzo[cd]indol-1(2H)-yl)piperidine-2,6-dione] was tested, and the pIC50 was > 9.00. In the case of `O=C1CC[C@H](N2C(=O)c3cccc4c(Cc5ccc(CN6CCC7(CCCO7)CC6)cc5)ccc2c34)C(=O)N1` (single isomer, unassigned) [Compound 216, 3-[6-[[4-(1-oxa-8-azaspiro[4.5]decan-8-ylmethyl)phenyl]methyl]-2-oxo-benzo[cd]indol-1-yl]piperidine-2,6-dione], the pIC50 was > 9.00. `O=C1CCC(N2C(=O)c3cccc4c(Cc5cnn(C6CCN(C(=O)C7(C(F)(F)F)CCC7)CC6)c5)ccc2c34)C(=O)N1` (stereo not shown) [Compound 51, 3-(2-oxo-6-((1-(1-(1-(trifluoromethyl)cyclobutane-1-carbonyl)piperidin-4-yl)-1H-pyrazol-4-yl)methyl)benzo[cd]indol-1(2H)-yl)piperidine-2,6-dione] was tested, and the pIC50 was > 9.00. With `O=C1CCC(N2C(=O)c3cccc4c(Cc5cnn(C6CCN(C(=O)c7cccnc7)CC6)c5)ccc2c34)C(=O)N1` (stereo not shown) [Compound 43, 3-(6-((1-(1-nicotinoylpiperidin-4-yl)-1H-pyrazol-4-yl)methyl)-2-oxobenzo[cd]indol-1(2H)-yl)piperidine-2,6-dione] the pIC50 was > 9.00. `CC1(C(=O)N2CCC(n3cc(Cc4ccc5c6c(cccc46)C(=O)N5C4CCC(=O)NC4=O)cn3)CC2)CCC1` (single isomer, unassigned) [Compound 67, 3-[6-[[1-[1-(1-methylcyclobutanecarbonyl)-4-piperidyl]pyrazol-4-yl]methyl]-2-oxo-benzo[cd]indol-1-yl]piperidine-2,6-dione] was tested, and the pIC50 was > 9.00. With `CC(C)(C)OC(=O)N1CCC(n2cc(Nc3ccc4c5c(cccc35)C(=O)N4C3CCC(=O)NC3=O)c(Cl)n2)CC1` (stereo not shown) [Compound 250, tert-butyl 4-[3-chloro-4-[[1-(2,6-dioxo-3-piperidyl)-2-oxo-benzo[cd]indol-6-yl]amino]pyrazol-1-yl]piperidine-1-carboxylate] the pIC50 was > 7.00. In the case of `CC(C)(C)OC(=O)N1CCC(n2cc(C(O)c3ccc4c5c(cccc35)C(=O)N4C3CCC(=O)NC3=O)cn2)CC1` (stereo not shown) [Compound 266, tert-butyl 4-[4-[[1-(2,6-dioxo-3-piperidyl)-2-oxo-benzo[cd]indol-6-yl]-hydroxy-methyl]pyrazol-1-yl]piperidine-1-carboxylate], the pIC50 was > 9.00. With `O=C1CCC(N2C(=O)c3cccc4c(Cc5ccc(CN6CCN(CC(F)(F)F)CC6)cc5)ccc2c34)C(=O)N1` (stereo not shown) [Compound 161, 3-(2-Oxo-6-{4-[4-(2,2,2-trifluoro-ethyl)-piperazin-1-ylmethyl]-benzyl}-2H-benzo[cd]indol-1-yl)-piperidine-2,6-dione] the pIC50 was > 9.00. In the case of `O=C1CCC(N2C(=O)c3cccc4c(Cc5cnn(C6CCN(C7CCCC78CCC8)CC6)c5)ccc2c34)C(=O)N1` (single isomer, unassigned) [Compound 178, 3-[2-oxo-6-[[1-[1-[spiro[3.4]octan-8-yl]-4-piperidyl]pyrazol-4-yl]methyl]benzo[cd]indol-1-yl]piperidine-2,6-dione], the pIC50 was > 9.00. With `Nc1ccc2c3c(cccc13)C(=O)N2C1CCC(=O)NC1=O` (stereo not shown) [Compound 144, 3-(6-Amino-2-oxo-2H-benzo[cd]indol-1-yl)-piperidine-2,6-dione hydrochloride] the pIC50 was > 6.00. With `CC1(n2cc(Cc3ccc4c5c(cccc35)C(=O)N4C3CCC(=O)NC3=O)cn2)CCN(C(=O)C2(C#N)CC2)CC1` (stereo not shown) [Compound 79, 1-(4-(4-((1-(2,6-dioxopiperidin-3-yl)-2-oxo-1,2-dihydrobenzo[cd]indol-6-yl)methyl)-1H-pyrazol-1-yl)-4-methylpiperidine-1-carbonyl)cyclopropane-1-carbonitrile] the pIC50 was > 9.00.

Same assay, conditions: NCIH929.1 cell viability, 96 hr, top concentration 1 μM, 14 points half log titration; read-out: IC50
In the case of `O=C1CCC(N2C(=O)c3cccc4c(Cc5ccc(CN6C7COCC6C7)cc5)ccc2c34)C(=O)N1` (stereo not shown) [Compound 226, 3-(6-(4-((3-oxa-6-azabicyclo[3.1.1]heptan-6-yl)methyl)benzyl)-2-oxobenzo[cd]indol-1(2H)-yl)piperidine-2,6-dione], the pIC50 was > 9.00. For `CC1(C(=O)N2CCC(n3cc(Cc4ccc5c6c(cccc46)C(=O)N5C4CCC(=O)NC4=O)cn3)CC2)CCC1` (single isomer, unassigned) [Compound 68, 3-[6-[[1-[1-(1-methylcyclobutanecarbonyl)-4-piperidyl]pyrazol-4-yl]methyl]-2-oxo-benzo[cd]indol-1-yl]piperidine-2,6-dione], the pIC50 was > 9.00. For `O=C1CCC(N2C(=O)c3cccc4c(Cc5cnn(C6CCN(C7CCCC78CCC8)CC6)c5)ccc2c34)C(=O)N1` (single isomer, unassigned) [Compound 179, 3-[2-oxo-6-[[1-[1-[spiro[3.4]octan-8-yl]-4-piperidyl]pyrazol-4-yl]methyl]benzo[cd]indol-1-yl]piperidine-2,6-dione], the pIC50 was > 9.00.
